The source of these data is ChEMBL document CHEMBL6153157, “Novel 3-Aminothieno[2,3-b]pyridine-2-carboxamides with Activity against Mycobacterium tuberculosis” (ACS Med Chem Lett, 2025).

Bounds are passed on as bounds.

A short description of data set [1]: Selectivity index, ratio of IC50 for cytotoxicity against human HepG2 cells to IC90 for antibacterial activity against wild type Mycobacterium tuberculosis H37Rv-LP DREAM8 strain expressing codon-optimized DsRed. The class given is toxicity, cell-based.
Data set [2] is described as follows: Cytotoxicity against human HepG2 cells assessed as cell growth inhibition incubated for 3 days by CellTiter-Glo reagent-based luminescence assay. The class given is toxicity.
The test system of data set [3] is Mycobacterium tuberculosis. Description: Antibacterial activity against wild type Mycobacterium tuberculosis H37Rv-LP DREAM8 strain expressing codon-optimized DsRed assessed growth inhibition incubated for 5 days by fluorescence spectrophotometric assay. The class given is functional. The conditions noted are these: H37Rv-LP DREAM8, 120 h, time 5 day.
In data set [4] the test system is Mycobacterium tuberculosis. The data set is described as follows: Antibacterial activity against Mycobacterium tuberculosis LepB-UE strain under expressing signal peptidase LepB assessed growth inhibition incubated for 5 days by fluorescence spectrophotometric assay. Type of data set: functional. Particulars: 120 h, time 5 day.

For `COc1ccc(-c2cc(C(F)(F)F)c3c(N)c(C(=O)NC45CC6CC(CC(C6)C4)C5)sc3n2)cc1`, the selectivity ratio in data set [1] is under 91. Moreover, in data set [2], the IC50 at 3 days is over 100 µM. The 90% effect level in data set [3] (IC90) was put at 1.1 µM.
With `COc1ccc(-c2cc(C(F)(F)F)c3c(N)c(C(=O)NC(C)C4CCCCC4)sc3n2)cc1` (stereo not given), the selectivity ratio in data set [1] is over 91. The half-inhibitory concentration (IC50) at 3 days in data set [2] was over 100 µM. This compound also yielded a concentration for an effect of 90% (IC90) in data set [3] of 1.1 µM.
Turning to `COc1ccc(-c2cc(C(F)(F)F)c3c(N)c(C(=O)NCc4cccc(C)c4C)sc3n2)cc1`, the selectivity ratio in data set [1] was found to be 38. Moreover, the IC50 at 3 days in data set [2] came to 50 µM. Also, the 90% effect level in data set [3] (IC90) was put at 1.3 µM.
The matching figures for `COc1ccc(-c2cc(C(F)(F)F)c3c(N)c(C(=O)NCC45CC6CC(CC(C6)C4)C5)sc3n2)cc1`: under 71, over 100 µM and 1.4 µM.
The like results for `COc1ccc(-c2cc(C(F)(F)F)c3c(N)c(C(=O)N4CC(F)(F)C4)sc3n2)cc1` were, in that order, under 1, over 50 µM and over 50 µM.
`CCC(NC(=O)c1sc2nc(-c3ccc(OC)cc3)cc(C(F)(F)F)c2c1N)c1ccccc1` (stereo not given): the selectivity ratio in data set [1] is over 135. In addition, the IC50 at 3 days in data set [2] is over 100 µM. Also, in data set [3], the 90% effect level (IC90) was put at 0.74 µM.
Regarding `COc1ccc(-c2cc(C(F)(F)F)c3c(N)c(C(=O)NC45CC6CC(CC(O)(C6)C4)C5)sc3n2)cc1`, in data set [1], the selectivity ratio came to 3. Further, in data set [2], the IC50 at 3 days amounted to 19 µM. The compound further came in with an IC90 in data set [3] of 7.5 µM.
Regarding `COc1ccc(-c2cc(C(F)(F)F)c3c(N)c(C(=O)N4CC5(CCOC5)C4)sc3n2)cc1`, the selectivity ratio in data set [1] is under 1. Further, the IC50 at 3 days in data set [2] worked out at 33 µM. Moreover, in data set [3], the IC90 is over 50 µM.
For the compound `COc1ccc(-c2cc(C(F)(F)F)c3c(N)c(C(=O)NC45CC(C4)C5)sc3n2)cc1`, the selectivity ratio in data set [1] is under 1. The IC50 at 3 days in data set [2] came to 36 µM. This compound registered an IC90 in data set [3] of over 50 µM.
As to `COc1ccc(-c2cc(C(F)(F)F)c3c(N)c(C(=O)NC(C)c4ccccc4)sc3n2)cn1` (stereo not given), the IC50 at 3 days in data set [2] stood at 19 µM. For the same compound, the IC90 in data set [3] amounted to 1.2 µM; in data set [4], 0.41 µM.
`COc1ccc(-c2cc(C(F)(F)F)c3c(N)c(C(=O)N4CCC4)sc3n2)cc1`: in data set [1], the selectivity ratio was under 1. Also, the half-inhibitory concentration (IC50) at 3 days in data set [2] worked out at 62 µM. Also, the IC90 in data set [3] is over 100 µM.
Regarding `COc1ccc(-c2cc(C(F)(F)F)c3c(N)c(C(=O)Nc4cc(C)ccc4C)sc3n2)cc1`, the selectivity ratio in data set [1] was under 1. In addition, the half-inhibitory concentration (IC50) at 3 days in data set [2] amounted to 23 µM. The compound further came in with an IC90 in data set [3] of over 100 µM.
Take `COc1ccc(-c2cc(C(F)(F)F)c3c(N)c(C(=O)NCc4ccccc4)sc3n2)cc1`: in data set [1], the selectivity ratio is under 1. In data set [2], the concentration for half-maximal inhibition (IC50) at 3 days was 88 µM. The same compound registered a 90% effect concentration (IC90) in data set [3] of over 100 µM.
Consider `COc1ccc(-c2cc(C(F)(F)F)c3c(N)c(C(=O)NCc4ccccc4C)sc3n2)cc1`, for which the selectivity ratio in data set [1] amounted to 10. Also, the IC50 at 3 days in data set [2] turned out to be 23 µM. For the same compound, in data set [3], the IC90 was determined as 2.4 µM.
With `COc1ccc(-c2cc(C(F)(F)F)c3c(N)c(C(=O)Nc4ccc(C)c(C)c4)sc3n2)cc1`, in data set [1], the selectivity ratio was under 1. Further, the half-inhibitory concentration (IC50) at 3 days in data set [2] turned out to be 79 µM. In data set [3], this compound had an IC90 of over 100 µM.
